{
  "source": "patent US20220280538A1",
  "about": "“METHODS OF TREATING P53 MUTANT CANCERS USING OGDH INHIBITORS” (MEMORIAL SLOAN KETTERING CANCER CENTER, priority 2019, published 2022)",
  "key": {"KP^sh cells [1]": {"tested_on": "KP^sh cells", "experiment": "RNA-Seq / GSEA / qRT-PCR gene expression in KP^sh cells", "assay_type": "cell-based, mouse", "protocol": "qRT-PCR. Total RNA was extracted in triplicate wells from indicated conditions using the RNAeasy Mini Kit (Qiagen) according to manufacturer protocols. cDNA was synthesized from 1 μg of RNA (AffinityScript QPCR cDNA synthesis kit, Agilent) and QPCR amplification performed with SYBR green (Perfecta SYBR green fast mix, QuantaBio) using the following primer pairs on a ViiA 7 Real-Time PCR System (Life technologies). 36B4 was utilized as endogenous control.\nRNA-Seq. Total RNA was isolated from duplicate wells of indicated conditions. RNA integrity and concentration were assessed using a BioAnalyzer (Agilent). RNA sequencing libraries were generated using Illumina mRNA TruSeq kit with dual index barcoding. […] Approximately 8 million paired-end 76 bp reads were sequenced per replicate on a HiSeq 2500 instrument on RAPID mode. […] Genome wide transcript counting was performed by HTSeq or featureCounts to generate FPKM matrix. […] Differential expression analysis was performed with DESeq2 package in R^50. Genes with a real adjusted p value were used for downstream analyses.\nGene Set Enrichment Analysis. Gene set enrichment analysis (GSEA) was performed using ranked lists. […] GSEAPreranked version 4 was used with default parameters and data were exported and graphed in GraphPad Prism version 7."}, "[2]": {"tested_on": "Nras^G12D; Mll-Af9 murine AML cells", "experiment": "aKG:succinate ratio in AML cells by GC/MS", "assay_type": "cell-based", "settings": "FIG. 20F"}, "OGDH": {"biological_target": "T1, OGDH (Homo sapiens, UniProt Q02218)", "T1 sequence (Q02218 41-1023)": "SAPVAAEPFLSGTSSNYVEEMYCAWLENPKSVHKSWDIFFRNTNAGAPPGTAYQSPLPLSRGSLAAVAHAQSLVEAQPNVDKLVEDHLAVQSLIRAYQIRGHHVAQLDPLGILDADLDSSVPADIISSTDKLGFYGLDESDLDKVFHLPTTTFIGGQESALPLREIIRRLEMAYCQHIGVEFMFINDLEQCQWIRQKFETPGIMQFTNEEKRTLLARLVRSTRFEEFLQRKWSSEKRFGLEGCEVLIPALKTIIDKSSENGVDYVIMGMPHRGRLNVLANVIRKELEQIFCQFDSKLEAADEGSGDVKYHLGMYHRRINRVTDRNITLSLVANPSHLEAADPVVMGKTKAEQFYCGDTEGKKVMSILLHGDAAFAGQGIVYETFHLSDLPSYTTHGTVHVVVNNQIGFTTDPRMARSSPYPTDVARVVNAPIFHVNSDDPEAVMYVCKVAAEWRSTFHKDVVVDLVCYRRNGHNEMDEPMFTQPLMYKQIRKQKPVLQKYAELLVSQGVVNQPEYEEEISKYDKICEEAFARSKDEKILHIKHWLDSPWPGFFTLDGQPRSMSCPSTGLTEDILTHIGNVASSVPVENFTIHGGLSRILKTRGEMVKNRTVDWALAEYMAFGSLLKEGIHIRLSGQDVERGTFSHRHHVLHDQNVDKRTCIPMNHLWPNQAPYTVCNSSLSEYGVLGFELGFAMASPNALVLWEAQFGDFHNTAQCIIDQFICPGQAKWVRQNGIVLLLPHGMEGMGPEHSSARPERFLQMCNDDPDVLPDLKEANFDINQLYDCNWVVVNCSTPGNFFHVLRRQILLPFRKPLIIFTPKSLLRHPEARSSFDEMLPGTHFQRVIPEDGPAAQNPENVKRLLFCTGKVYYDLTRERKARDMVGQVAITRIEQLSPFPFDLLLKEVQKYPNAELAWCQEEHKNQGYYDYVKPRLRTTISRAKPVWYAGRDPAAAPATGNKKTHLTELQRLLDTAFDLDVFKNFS", "experiment": "OGDH enzyme inhibition in vitro", "assay_type": "biochemical", "source_text": "It is worth noting that there are ongoing clinical trials in hematologic malignancies including AML for a compound designated CPI-613. This drug is an analog of lipoate, a catalytic co-factor and modulator of several metabolic enzymes, including the TCA enzymes pyruvate dehydrogenase (PDH) and OGDH. However, the compound is thought to elicit its anti-cancer effects through an indirect mechanism and may also target additional lipoate-dependent enzymes involved in amino acid catabolism. […] Instead development of specific inhibitors of OGDH was initiated for the purpose of exploiting a known metabolic phenotype mimicking the wt-p53 tumor suppressive effect. These concepts and compounds will be tested in our models of CK AML."}, "KP^sh cells [3]": {"tested_on": "KP^sh cells", "experiment": "αKG/succinate ratio in KP^sh PDAC cells (metabolite profiling)", "assay_type": "cell-based, mouse", "settings": "KP^sh cells on dox; 3 μM etoposide or 25 nM trametinib, 48 or 96 hours", "protocol": "Cell Lines and Cell Culture Treatments. KP^sh-1-3 cells were derived from PDAC that developed in three separate Pdx1-Cre; LSL-KrasG12D; Col1a1-TRE-shp53-shRenilla; Rosa26-CAGs-LSL-rtTA-IRES-mKate2 mice generated by blastocyst injection and maintained on doxycycline (dox) chow (625 mg/kg, Harlan Laboratories) 5 days from birth until sacrifice. […] KP^floxRIK cells were derived from PDAC that developed in a p48-Cre; LSL-KrasG12D; p53^flox/+; Rosa26-CAGs-LSL-rtTA-IRES-mKate2 mouse generated by blastocyst injection. KP^R172HRIK cells were derived from tumors that developed in a p48Cre^ER; LSL-KrasG12D; LSL-p53^R172H/+; Rosa26-CAGs-LSL-rtTA-IRES-mKate2 mouse generated by blastocyst injection. […]\nMetabolite Profiling. […] Samples were analyzed using an Agilent 7890A GC coupled to Agilent 5975C mass selective detector. […] Peaks representing compounds of interest were extracted and integrated using MassHunter software (Agilent Technologies) and peak area was normalized to the internal standard (d5-2HG) peak area and protein content of duplicate samples as determined by BCA protein assay (Thermo Scientific). Ions used for quantification of metabolite levels are as follows: d5-2HG m/z 354; citrate, m/z 465; αKG, m/z 304; aspartate, m/z 334; fumarate, m/z 245; malate, m/z 335 and succinate, m/z 247. […]"}, "KP^sh cells [4]": {"tested_on": "KP^sh cells", "experiment": "Cell cycle arrest and senescence (BrdU, SA-β-gal) in KP^sh PDAC cells", "assay_type": "cell-based, mouse", "settings": "KP^sh cells on dox; 3 μM etoposide or 25 nM trametinib, 48 or 96 hours", "protocol": "Cell Lines and Cell Culture Treatments. KP^sh-1-3 cells were derived from PDAC that developed in three separate Pdx1-Cre; LSL-KrasG12D; Col1a1-TRE-shp53-shRenilla; Rosa26-CAGs-LSL-rtTA-IRES-mKate2 mice generated by blastocyst injection and maintained on doxycycline (dox) chow (625 mg/kg, Harlan Laboratories) 5 days from birth until sacrifice. […] Guide strands for Col1a1 targeted tandem shRNAs were: p53, [sequence] (SEQ ID NO: 1) and Renilla, [sequence] (SEQ ID NO: 2). […] Tumors were diced with scissors and resulting pieces sequentially digested with 1 mg/ml collagenase V (Sigma) diluted in Hanks Buffered saline solution followed by 0.25% Trypsin. Digested suspensions were washed with complete DMEM (DMEM, 10% FBS (GIBCO), 1× Penicillin/Streptomycin) and propagated in complete DMEM on collagen-coated plates (PurCol, Advanced Biomatrix, 0.1 mg/ml). KP^sh cells were grown in complete DMEM supplemented with 1 μg/ml doxycycline.\nSenescence Associated Beta-Galactosidase (SA-β-Gal) Assay. SA-β-gal activity was detected as described previously. […] At least 200 cells were analyzed from triplicate wells at all conditions. […]"}, "[5]": {"tested_on": "p53 mutant human PDAC cells", "experiment": "5hmC flow cytometry in human PDAC cells", "assay_type": "cell-based", "settings": "8988 and Panel cells, 4 mM DM-αKG for 72 h", "procedure": "(§1) BrdU, Annexin-V, 5hmC Flow Cytometry Assays. BrdU (BD Pharmigen) and Annexin V (BDPharmigen) analysis was performed in triplicate in cells plated in 6-well dishes under indicated conditions via manufacturers' protocols. 5hmC flow was performed in triplicate in cells plated in 6-well dishes. Briefly, adherent cells were washed with PBS, collected by trypsinization, and fixed on ice for 15 minutes in fixation/permeabilization solution (BD Cat #554714). The cells were then washed with 1× perm/wash buffer (BD Cat #554714) supplemented with 0.1% Triton X, treated with 1× perm/wash buffer supplemented with 0.5% Triton X and 0.5% Nonidet P-40 substitute for 30 minutes. Then, the cells were washed with 1× perm/wash buffer supplemented with 0.1% Triton X, incubated overnight at 4° C. with rabbit anti-5hmC antibody diluted 1:100 in 1× perm/wash buffer supplemented with 0.1% Triton X, washed with 1× perm/wash buffer supplemented with 0.1% Triton X, and incubated for 1 hour at room temperature with goat anti-rabbit Alexa Fluor 700 diluted 1:200 in 1× perm/wash buffer supplemented with 0.1% Triton X. The cells were then washed with 1× perm/wash buffer supplemented with 0.1% Triton X, resuspended in 1× perm/wash buffer, and analyzed."}, "KP^sh cells [6]": {"tested_on": "KP^sh cells", "experiment": "ATAC-Seq chromatin accessibility in KP^sh cells", "assay_type": "cell-based, mouse", "settings": "KP^sh cells with dox, cell-permeable αKG", "procedure": "Epigenomic Analysis. 1×10^6 KP^sh cells were washed with PBS and plated on and off dox 8 days (−D8) before collecting cells for ATAC-Seq analysis. Cells maintained on dox and off dox were passaged every 48 h. Three days prior to harvest, dimethyl-α-ketoglutarate (DM-αKG) was added to cells grown on dox, while DMSO was added to cells maintained on dox and cells maintained off dox. All cell groups (On dox, DMSO; On dox, DM-αKG; Off dox, DMSO) were split into 6-well plates in duplicate in fresh media containing dox, DM-αKG, and DMSO as indicated two days prior to harvest. This medium was refreshed 24 h before collection. […] Barcoded libraries were pooled (2-4 samples/lane) and run on an Illumina HiSeq 2500 sequencer using 50 bp paired-end reads.\nFor data analysis, quality and adapter filtering was applied to raw reads using ‘trim_galore’ before aligning to mouse assembly mm9 with bowtie2 using the default parameters. The Picard tool MarkDuplicates was used to remove reads with the same start site and orientation. The BEDTools suite was used to create read density profiles. Enriched regions were discovered using MACS2 and scored against matched input libraries (fold change >2 and FDR-adjusted p-value <0.1). […] ChIP-seq data were processed in the same way as ATAC-seq data, except read density profiles for ChIP included a read extension equivalent to the average library fragment size. […]"}, "dox-treated KP^sh cells": {"tested_on": "dox-treated KP^sh cells", "experiment": "5hmC flow cytometry in KP^sh cells", "assay_type": "cell-based, mouse", "settings": "KP^sh-2 cells, 4 mM DM-αKG for 72 h", "procedure": "as §1"}},
  "data": [
    {"smiles": "CC(=O)[O-].[Na+]", "note": "[acetate, sodium acetate]", "values": [
      {"measurement": "induction of pre-malignant associated genes co-regulated by p53 and αKG (qRT-PCR)", "setting": "KP^sh cells [1]; 4 mM, 72 h", "value": "not"}
    ]},
    {"smiles": "O=C(O)CCCCC(CCSCc1ccccc1)SCc1ccccc1", "note": "(centres unmarked) [CPI-613]", "values": [
      {"measurement": "cellular ratio of αKG:succinate", "setting": "[2]", "value": "not"},
      {"measurement": "specificity for OGDH", "setting": "OGDH", "value": "lacks specificity for OGDH"},
      {"measurement": "concentration at which OGDH is inhibited", "setting": "OGDH; in vitro", "value": "> 200", "unit": "µM"}
    ]},
    {"smiles": "COc1cc([C@@H]2c3cc4c(cc3[C@@H](O[C@@H]3O[C@@H]5CO[C@@H](C)O[C@H]5[C@H](O)[C@H]3O)[C@H]3COC(=O)[C@H]23)OCO4)cc(OC)c1O", "note": "[etoposide]", "values": [
      {"measurement": "αKG/succinate ratio", "setting": "KP^sh cells [3]", "value": "neither altered the αKG/succinate ratio"},
      {"measurement": "cell cycle arrest and senescence", "setting": "KP^sh cells [4]", "value": "triggered cell cycle arrest and senescence"}
    ]},
    {"smiles": "COC(=O)CCC(=O)C(=O)OC", "note": "[cell-permeable αKG, dimethyl-α-ketoglutarate]", "values": [
      {"measurement": "cellular 5hmC", "setting": "[5]", "value": "induced cellular 5hmC"},
      {"measurement": "chromatin accessibility (ATAC-Seq)", "setting": "KP^sh cells [6]", "value": "global increase in chromatin accessibility"},
      {"measurement": "expression of genes enriched in malignant PDAC cells (GSEA)", "setting": "KP^sh cells [1]", "value": "concomitant downregulation of genes enriched in malignant PDAC cells"},
      {"measurement": "expression of genes of premalignant PanIN lesions (GSEA)", "setting": "KP^sh cells [1]", "value": "robust increase in expression of genes selectively expressed in cells derived from premalignant PanIN lesions"},
      {"measurement": "cellular 5hmC", "setting": "dox-treated KP^sh cells", "value": "induced cellular 5hmC"}
    ]}
  ]
}
